# Data from patent US7345078B2, “NF-κB inhibitors and uses thereof” (The Board of Trustees of Michigan State University, priority 2002, dated 2008).
# “Also recorded” adds a separate entry of the source.
# Assays:
# [1] = system: RIF-1 murine tumor; experiment: RIF-1 murine model of tumor growth delay; format: in vivo, mice; details: for Median (days to 4x): untreated 7.0; for Days to 4x (Ave ±SE): untreated 7.3 ± 0.6; for chemopotentiation of camptothecin: combinational treatment with camptothecin (CPT); for chemopotentiation of camptothecin / chemopotentiation of cis-platin: RIF-1 tumors in mice; for chemopotentiation of cis-platin: combinational treatment with cis-platin (CDDP)
# Procedure: Tumor cells were injected, bilaterally, into the backs of mice. When tumors reached 100 mm^3, the mice were treated with an intraperitoneal injection of the compound. Tumor volumes were measured 3 times a week until they reached 4 times the size they were on the first treatment day. Data is recorded as “Days to 4×’ or ratio of ‘Days to 4×” of the treated over untreated controls.
# [2] = target: T1, NF-κB (Homo sapiens, UniProt P19838+Q04206); experiment: EMSA of nuclear NF-κB-DNA binding in nuclear extracts of PMA-stimulated Jurkat leukemia T-cells; format: cell-based; set-up: endogenous in cells; host or cells: Jurkat leukemia T-cells, clone E6-1 (ATCC), PMA-stimulated; nuclear extract; details: for inhibition at 0.1 µM: compound 0.1 μM (100 nM)
# Procedure: (§1) All compounds were evaluated for their potential anti-inflammatory activity by examining the activity of NF-κB in vitro in nuclear extracts using the procedure from Breton and Charbot-Fletcher (Breton et al., J. Pharmacol. Exp. Ther. 282 459-466 (1997)). […] The Jurkat cells (1×10^7 cells/mL) are subsequently treated with various concentrations of imidazoline for 30 minutes at 37° C. followed by PMA stimulation (5.0 ng/mL) for an additional 5 hours. Nuclear extracts are incubated for 20 minutes with a double stranded Cy3 labeled NF-κB consensus oligonucleotide, 5′-[…]-3′ (SEQ ID NO:1) at room temperature. The crude mixture is loaded on a 5% non-denaturing polyacrylamide gel prepared in 1×Tris borate/EDTA buffer and electrophoresed at 200V for 2 hours. After electrophoresis the gel is analyzed using a phosphorimager (Biorad FX PLUS) for detection of the NF-κB-DNA binding.
# EMSA assay for NF-κB-DNA binding was as follows. […] The Jurkat cells (1×10^6 cells/mL) were subsequently treated with various concentrations of the compounds for 30 minutes at 37° C. and 5% CO2 followed by PMA (50 ng/mL) and PHA ([…]) stimulation for an additional 30 minutes. The cells were harvested by centrifugation, washed in ice cold PBS and the nuclear extracts were prepared as previously described (Dignam, et al., Nucl. Acids Res 11: 1475-1489 (1983)). The protein concentration of the extracts was determined according to the Method of Bradford (1976) with BioRad reagents. Nuclear extracts are incubated for 20 minutes at room temperature with a double stranded Cy3 labeled NF-kB consensus oligonucleotide, 5′-[…] CCAGGC-3′ (SEQ ID NO:1). The binding mixture ([…]) contained 10 mM HEPES-NaOH pH 7.9, 4 mM tris-HCl, pH 7.9, 6.0 mM KCl, 1 mM EDTA, 1 mM DTT, 10% glycerol, 0.3 mg/mL bovide serum albumin and […] of poly (dI.dC). The binding mixtures ([…] of nuclear extract protein) were incubated for 20 minutes at room temrperature with 0.16 pmol of Cy3 labeled oligonucleotide. The mixture was loaded on a 4% polyacrylamide gel prepared in 1× tris borate/EDTA buffer and was electrophoresed at 200 V for 20 minutes. After electrophoresis the gel was analyzed using a phosphorimager (Biorad FX plus) for detection of the NF-kB—DNA binding.
# [3] = target: T1, NF-κB; experiment: IC50 values in Mammalian Jurkat cells Leukemia T cells; format: cell-based; set-up: endogenous in cells; host or cells: Jurkat leukemia T-cells, clone E6-1 (ATCC), PMA-stimulated; nuclear extract; details: concentration at which 50% of the protein/enzyme is inhibited in cells
# Procedure: as §1
# IC50 values in Mammalian Jurkat cells Leukemia T cells: IC50 value is defined as the concentration of compounds at which 50% of the protein/enzyme is inhibited in cells (Table 3).
# [4] = system: Micrococcus luteus; experiment: standardized disk diffusion method (zone diameter / MIC); format: cell-based; details: at the amount printed in the same cell
# Procedure: Compounds 4, 6, and 7 were tested for the inhibition of bacteria. A total of 9 bacterial strains were screened. The following Gram-negative and Gram-positive bacteria were included: Staphylococcus aureus, Enterobacter aerogenes, Esherichia coli, Klebsiella pneumonia, Pseudomonas aeruginosa, Serratia marcescens, Bacillus cerius, Bacillus subtillus and micrococcus luteus. Bacterial isolates were removed from storage, streaked on to nutrient agar plates and incubated for 18-24 hours at 35° C. A working bacterial suspension was prepared by suspending 3-5 isolated colonies in 5 mL saline solution. The turbidity of this suspension was carefully adjusted photometrically to equal that of a 0.5 McFarland standard. The zone diameters were determined by a standardized disk diffusion method using cation-supplemented Mueller-Hinton agar according to NCCLS guidelines (National Committee for Clinical Laboratory Standards. Methods for dilution Antimicrobial Susceptibility Tests for Bacteria that Grow Aerobically. Fifth Edition: Approved Standard M7-A5. Wayne, Pa.: NCCLS (2000)). Minimum inhibitory concentrations (MICs) were considered the lowest concentration that gave a clear zone of inhibition. The inoculated agar plates were incubated for 16-20 hours at 35° C. in ambient air. The diameters of the zones were read in millimeters.
# [5] = system: CEM cells
# Procedure: Imidazolines 28-33 were evaluated for their ability to enhance the activity of camptothecin in CEM cells. Induction of apoptosis is the hallmark of most chemotherapeutic agents including camptothecin. The systematic disassembly of apoptotic cells is accomplished by active caspases (Thornberry et al., Nature 356: 768-774 (1992); Nicholson et al., Trends Biochem. Sci. 22: 299-306 (1997)). A standard apoptosis assay is Promega's APO-ONE homogeneous caspase-3/7 assay, which takes advantage of this caspase activity to directly quantify the induction of apoptosis in cells (Thornberry et al., Nature 356: 768-774 (1992); Nicholson et al., Trends Biochem. Sci. 22: 299-306 (1997)). According to the hypothesis that NF-κB inhibition should enhance the activity of chemotherapeutic agents via the inhibition of anti-apoptotic signaling pathway—thus enhancement of apoptosis—(Boland, Biochem Soc Trans 29: 674-678 (2001); Chiao et al., Cancer 95: 1696-1705 (2002)), we investigated the effects of the imidazolines using this caspase-3/7 assay. This assay quantifies the level of apoptotic cell death induced by camptothecin with and without the imidazolines and will establish the direct level of enhancement of apoptosis by camptothecin.
# Induction of apoptosis using caspase 3/7 assay was as follows. CEM cells (CCRF-CEM); Amer. Type Culture Collection, Rockville, Md.) were grown in RPMI-1640 Media (Gibco-BRL, Rockville, Md.) supplemented with 10% fetal bovine serum, penicillin (614 ηg/mL), streptomycin (10 μg/mL) and hepes buffer, pH 7.2 at 37° C., 5% CO2. DMSO was used as the vector for all drugs and added in the control experiments. Cell cultures were treated with 1 μM, 0.1 μM or 10 nM of the imidazolines and allowed to incubate at 37° C., 5% CO2. An aliquote was transferred to a 96-well plate and mixed with an equal volume of Apo-ONE™ Homogenous Caspase-3/7 assay (Promega Corporation) reagent. The contents of the plate were gently mixed and allowed to incubate for 1 hour. The fluorescence of each well was then measured on a Molecular Imager FX Pro at 532 nm. All reported data was the average of two independent experiments unless otherwise indicated.
# [6] = IP, doses 5.0 and 50 mg/kg
# Procedure: Prior to the combinatorial studies, the toxicity of the compounds was determined in the mouse model. […] In short, the drugs are dissolved in DMSO and 100 μL given to the mice on day 0 by intraperitoneal injection (IP). […] Weight and death were the two measures of toxicity.
# [7] = target: T1, NF-κB; experiment: EMSA of camptothecin activated NF-κB in CEM leukemia T-cells; format: cell-based; set-up: endogenous in cells; nuclear extract
# Procedure: CEM cells were incubated with and without varying concentrations of camptothecin (CPT). Positive controls included PMA/PHA activation (FIG. 11, lane 2). Lane 3 included a positive control using PMA/PHA activation followed by the treatment of the extract with a NF-κB p65 antibody to unambiguously identify the NF-κB/DNA complex.
# CEM cells were treated with various concentration of imidazoline 32, 30 minutes prior to activation by camptothecin (0.1 μM). […] Control lanes include: DNA only (lane 1), PMA/PHA activated NF-κB (lane 2), PMA/PHA activated NF-κB treated with a p65 antibody, which provide a supershift (lane 3) and the unactivated control (lane 4).
# EMSA assay for NF-κB-DNA binding was as follows. […] The cells were harvested by centrifugation, washed in ice cold PBS and the nuclear extracts were prepared as previously described (Dignam, et al., Nucl. Acids Res 11: 1475-1489 (1983)). The protein concentration of the extracts was determined according to the Method of Bradford (1976) with BioRad reagents. Nuclear extracts are incubated for 20 minutes at room temperature with a double stranded Cy3 labeled NF-kB consensus oligonucleotide, 5′-[sequence] […] The binding mixture (25 mL) contained 10 mM HEPES-NaOH pH 7.9, 4 mM tris-HCl, pH 7.9, 6.0 mM KCl, 1 mM EDTA, 1 mM DTT, 10% glycerol, 0.3 mg/mL bovide serum albumin and 1 mg of poly (dI.dC). The binding mixtures (10 mg of nuclear extract protein) were incubated for 20 minutes at room temrperature with 0.16 pmol of Cy3 labeled oligonucleotide. The mixture was loaded on a 4% polyacrylamide gel prepared in 1× tris borate/EDTA buffer and was electrophoresed at 200 V for 20 minutes. After electrophoresis the gel was analyzed using a phosphorimager (Biorad FX plus) for detection of the NF-kB—DNA binding.
# [8] = system: NF-κB p50/p65 heterodimer; experiment: p65-ELISA assay of NF-κB nuclear translocation in Jurkat cells; format: cell-based, Human; details: concentrations 100 ηM-5.0 μM, 30 minutes prior to PMA activation
# Procedure: Inhibition of the nuclear translocation of the p50/p65 heterodimer of NF-κB was confirmed by a p65-ELISA assay. Cells were treated with the PDTC (positive control-reported to inhibit IκB phosphorylation thus inhibiting NF-κB translocation), and imidazoline 32, 30 minutes prior to PMA activation, followed by the isolation of the nuclear extract after a 30 minute incubation period.
# The quantity of p65/p50 heterodimer that has translocated into the nucleus was measured using a NF-κB p65 sandwich ELISA assay (Imgenex Corp.). Jurkat cells were grown to 2×10^6 cells/mL and treated with 50 ng/mL PMA and 1 μg/mL PMA/PHA and incubated at 37° C., 5% CO2. The cells are harvested after 30 minutes and nuclear extracts are prepared as previously described by Dignam and coworkers (Dignam, et al., Nucl. Acids Res 11: 1475-1489 (1983)). The NF-κB p65 sandwich ELISA kit was then used to monitor and quantify p65 translocation into the nucleus according to the manufacturers protocol.
# [9] = IP, imidazoline 100 mg/kg, cis-platin 4 mg/kg, camptothecin 6 mg/kg
# T1 sequence (Q04206 whole entry): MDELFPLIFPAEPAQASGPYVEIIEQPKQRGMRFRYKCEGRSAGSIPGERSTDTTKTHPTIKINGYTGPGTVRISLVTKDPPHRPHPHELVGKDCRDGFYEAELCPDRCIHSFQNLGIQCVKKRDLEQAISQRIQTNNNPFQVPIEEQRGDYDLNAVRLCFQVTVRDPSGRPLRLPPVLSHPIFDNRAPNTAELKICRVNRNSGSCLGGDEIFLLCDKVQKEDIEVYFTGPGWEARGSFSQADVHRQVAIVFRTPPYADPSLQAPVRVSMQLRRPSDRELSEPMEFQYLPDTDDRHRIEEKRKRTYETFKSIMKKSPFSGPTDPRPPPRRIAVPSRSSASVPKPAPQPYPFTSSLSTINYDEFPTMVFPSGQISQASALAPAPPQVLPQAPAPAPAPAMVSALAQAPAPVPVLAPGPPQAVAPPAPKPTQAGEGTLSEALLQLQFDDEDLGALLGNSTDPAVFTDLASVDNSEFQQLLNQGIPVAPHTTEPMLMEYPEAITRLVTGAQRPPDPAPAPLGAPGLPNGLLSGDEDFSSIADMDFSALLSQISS
# T1 sequence (P19838 1-433 limits assumed): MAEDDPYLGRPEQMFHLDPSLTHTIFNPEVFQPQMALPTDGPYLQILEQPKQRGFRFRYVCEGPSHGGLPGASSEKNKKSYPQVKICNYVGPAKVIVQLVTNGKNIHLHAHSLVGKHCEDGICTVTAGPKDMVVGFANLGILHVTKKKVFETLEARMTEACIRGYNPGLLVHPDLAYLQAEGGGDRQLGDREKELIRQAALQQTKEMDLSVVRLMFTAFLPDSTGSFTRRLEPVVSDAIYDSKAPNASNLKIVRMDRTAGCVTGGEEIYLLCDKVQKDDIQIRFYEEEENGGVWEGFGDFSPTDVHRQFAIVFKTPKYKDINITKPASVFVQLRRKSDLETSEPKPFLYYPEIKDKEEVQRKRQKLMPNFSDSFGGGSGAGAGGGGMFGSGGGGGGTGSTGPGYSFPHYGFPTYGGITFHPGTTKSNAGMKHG
smiles,measurement,setting,value
"C[C@]1(C(=O)O)N=C(c2ccccc2)N(c2ccc(F)cc2)[C@H]1c1ccccc1 (racemic) [Compound 3, Dl-(3S,4S)-1-(4-Fluorophenyl)-4-methyl-2,5-diphenyl-4,5-dihydro-1H-imidazole-4-carboxylic acid]",Days Delay (tumor growth delay),[1]; [9],-0.20 days
same,Median (days to 4x),[1]; [9],6.8 days
same,Days to 4x (Ave ±SE),[1]; [9],7.6 ± 1.0 days
same,chemopotentiation of camptothecin,[1],no significant chemopotentiation
same,chemopotentiation of cis-platin,[1],no significant chemopotentiation
same,inhibition at 1 µM,[2]; compound 1.0 μM,35%
same,IC50,[3],0.0065 µM
"C[C@]1(C(=O)O)N=C(c2ccccc2)N(Cc2ccccc2)[C@H]1c1ccncc1 (racemic) [Compound 6, Dl-(3S,4S)-1-Benzyl-4-methyl-2-phenyl-5-pyridin-4yl-4,5-dihydro-1H-imidazole-4-carboxylic acid]",zone of inhibition diameter,[4],10 mm
same,Days Delay (tumor growth delay),[1]; [9],-0.41 days
same,Median (days to 4x),[1]; [9],6.6 days
same,Days to 4x (Ave ±SE),[1]; [9],6.6 ± 0.3 days
same,chemopotentiation of camptothecin,[1],significant chemopotentiation
same,chemopotentiation of cis-platin,[1],significant chemopotentiation
same,inhibition at 0.1 µM,[2],84%
same,IC50,[3],0.3 µM
"C[C@]1(C(=O)O)N=C(c2ccccc2)N[C@H]1c1ccccc1 (racemic) [Compound 7, Dl (3S,4S)-4-Methyl-2,5-diphenyl-4,5-dihydro-1H-imidazole-4-carboxylic acid]",zone of inhibition diameter,[4],10 mm
same,inhibition at 0.1 µM,[2],38%
same,IC50,[3],0.02 µM
"C[C@]1(C(=O)O)N=C(c2ccccc2)N(c2ccc(F)cc2)[C@H]1c1ccccc1 (racemic) [Compound 28, dl-(4S,5S)-1-(4-Fluorophenyl)-4-methyl-2,5-diphenyl-4,5-dihydro-1H-imidazole-4-carboxylic acid]",Apoptosis (±S.D.),"[5]; Compound 1.0 μm alone, T-cells, 48 hour period, cells only = 1.00 (normalized)",1.25 ± 0.18
same,tolerability in mice,[6],well tolerated
"C[C@]1(C(=O)O)N=C(c2ccccc2)N(Cc2ccccc2)[C@H]1c1ccccc1 (racemic) [Compound 33, dl-(4S,5S)-1-Benzyl-4-methyl-2,5-diphenyl-4,5-dihydro-1H-imidazole-4-carboxylic acid]",tolerability in mice,[6],well tolerated
"CC[C@@]1(O)C(=O)OCc2c1cc1n(c2=O)Cc2cc3ccccc3nc2-1 [Camptothecin, camptothecin, reference compound]",Days Delay (tumor growth delay),[1]; [9],3.79 days
same,T/C (ratio of Days to 4x of treated over untreated controls),[1]; [9],1.4
same,Median (days to 4x),[1]; [9],10.8 days
same,Days to 4x (Ave ±SE),[1]; [9],10.3 ± 0.6 days
same,Fold enhancement of camptothecin (0.1 μM) after 48 hours,"[5]; CEM cells, imidazoline 1.0 μM + CPT 0.1 μM versus CPT 0.1 μM",1.00
same,NF-κB/DNA binding due to NF-κB activation,"[7]; camptothecin 10 μM to 10 nM, 2 hours",significant amount of NF-κB/DNA binding
"N.S=C(S)N1CCCC1 [PDTC, reference compound]",inhibition of NF-κB p50/p65 heterodimer nuclear translocation,[8],significant inhibition; also recorded: inhibited NF-κB translocation
same,inhibition of camptothecin induced NF-κB nuclear binding,"[7]; CPT 0.1 μM, 32 at 10 μM to 10 nM, PDTC 5 μM",decrease of binding
